These results are taken from BindingDB's records for doi:10.1021/jm7012858 (Wyeth Research, 2008).

The IC50 is the concentration at which inhibition is half-maximal. Higher therefore signals lower potency.

The structures appear in SMILES notation.

Sequence of Phosphatidylinositol 3-kinase regulatory subunit alpha/4,5-bisphosphate 3-kinase catalytic subunit alpha isoform (P27986 whole entry, canonical isoform): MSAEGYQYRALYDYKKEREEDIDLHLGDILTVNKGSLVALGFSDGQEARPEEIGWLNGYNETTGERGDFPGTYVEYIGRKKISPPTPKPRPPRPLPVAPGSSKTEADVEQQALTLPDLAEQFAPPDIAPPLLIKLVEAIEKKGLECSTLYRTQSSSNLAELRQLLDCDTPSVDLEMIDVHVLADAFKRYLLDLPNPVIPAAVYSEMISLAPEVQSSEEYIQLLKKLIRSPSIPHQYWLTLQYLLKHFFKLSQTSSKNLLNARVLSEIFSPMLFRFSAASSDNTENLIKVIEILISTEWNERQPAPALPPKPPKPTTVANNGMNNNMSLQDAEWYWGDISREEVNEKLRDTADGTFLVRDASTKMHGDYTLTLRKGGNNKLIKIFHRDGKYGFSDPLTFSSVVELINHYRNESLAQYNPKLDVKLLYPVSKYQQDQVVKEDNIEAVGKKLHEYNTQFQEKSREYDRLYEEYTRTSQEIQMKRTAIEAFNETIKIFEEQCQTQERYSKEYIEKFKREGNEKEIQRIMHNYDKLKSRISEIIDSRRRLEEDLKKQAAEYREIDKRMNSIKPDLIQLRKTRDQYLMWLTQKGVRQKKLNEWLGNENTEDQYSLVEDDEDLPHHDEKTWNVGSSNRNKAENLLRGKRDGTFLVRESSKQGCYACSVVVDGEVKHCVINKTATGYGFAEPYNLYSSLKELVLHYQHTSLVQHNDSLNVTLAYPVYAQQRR
Sequence of Phosphatidylinositol 3-kinase regulatory subunit alpha/4,5-bisphosphate 3-kinase catalytic subunit alpha isoform (P42336 whole entry, canonical isoform): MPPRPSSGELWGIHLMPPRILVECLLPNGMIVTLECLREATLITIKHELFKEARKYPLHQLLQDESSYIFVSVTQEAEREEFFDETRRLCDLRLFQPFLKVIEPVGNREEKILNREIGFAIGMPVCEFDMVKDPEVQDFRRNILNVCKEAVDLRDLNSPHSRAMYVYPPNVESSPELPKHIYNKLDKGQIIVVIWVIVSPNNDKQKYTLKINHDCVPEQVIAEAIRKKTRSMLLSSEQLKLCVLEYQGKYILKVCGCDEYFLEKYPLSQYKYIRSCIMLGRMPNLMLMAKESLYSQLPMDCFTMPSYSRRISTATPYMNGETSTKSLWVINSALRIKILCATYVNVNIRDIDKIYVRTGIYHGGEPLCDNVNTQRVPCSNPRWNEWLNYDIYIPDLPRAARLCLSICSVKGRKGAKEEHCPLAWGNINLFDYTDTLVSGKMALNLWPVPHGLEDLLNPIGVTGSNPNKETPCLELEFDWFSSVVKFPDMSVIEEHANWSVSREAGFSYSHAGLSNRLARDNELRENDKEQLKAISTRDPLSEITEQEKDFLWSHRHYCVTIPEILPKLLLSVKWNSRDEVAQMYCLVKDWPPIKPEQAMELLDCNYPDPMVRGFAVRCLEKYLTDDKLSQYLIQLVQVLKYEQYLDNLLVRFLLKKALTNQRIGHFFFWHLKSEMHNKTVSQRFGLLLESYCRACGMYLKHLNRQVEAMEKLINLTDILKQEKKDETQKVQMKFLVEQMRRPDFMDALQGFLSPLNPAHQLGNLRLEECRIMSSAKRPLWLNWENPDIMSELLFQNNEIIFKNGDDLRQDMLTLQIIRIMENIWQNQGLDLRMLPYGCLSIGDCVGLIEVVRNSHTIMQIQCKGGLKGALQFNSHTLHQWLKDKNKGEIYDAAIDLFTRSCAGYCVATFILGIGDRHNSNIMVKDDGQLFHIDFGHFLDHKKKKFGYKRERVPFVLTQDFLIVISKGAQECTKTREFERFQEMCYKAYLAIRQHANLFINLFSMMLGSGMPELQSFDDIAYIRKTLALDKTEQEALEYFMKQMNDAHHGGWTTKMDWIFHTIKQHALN

In this assay the target is Phosphatidylinositol 3-kinase regulatory subunit alpha/4,5-bisphosphate 3-kinase catalytic subunit alpha isoform (Homo sapiens, UniProt P42336). Description: PI3K Inhibition Assay. The procedure:
Inhibition of PI3K enzyme activity is measured in a microtiter plate-based fluorescence polarization (FP) assay.
In the case of `CCN(C=C1C(=O)O[C@H](COC)[C@]2(C)C3=C(C(=O)C(=O)C12)C1CC[C@H](O)[C@@]1(C)C[C@H]3OC(C)=O)CCCN(C)C` (stereo partly drawn) [(2R,3S,6E,14S,15S,17R)-6-({[3-(dimethylamino)propyl](ethyl)amino}methylidene)-8,14-dihydroxy-3-(methoxymethyl)-2,15-dimethyl-5,9-dioxo-4-oxatetracyclo[8.7.0.0^{2,7}.0^{11,15}]heptadeca-1(10),7-dien-17-yl acetate], the IC50 was determined as 12 nM.

Consider `COC[C@H]1OC(=O)C(=CN(CCCN(C)C)CCCN(C)C)C2C(=O)C(=O)C3=C([C@H](OC(C)=O)C[C@@]4(C)C3CC[C@@H]4O)[C@]21C` (stereo partly drawn) [(2R,3S,6E,14S,15S,17R)-6-({bis[3-(dimethylamino)propyl]amino}methylidene)-8,14-dihydroxy-3-(methoxymethyl)-2,15-dimethyl-5,9-dioxo-4-oxatetracyclo[8.7.0.0^{2,7}.0^{11,15}]heptadeca-1(10),7-dien-17-yl acetate], for which the IC50 amounted to 22 nM.

Take `COC[C@H]1OC(=O)C(=CN2CCN(Cc3ccccc3)CC2)C2C(=O)C(=O)C3=C([C@H](OC(C)=O)C[C@@]4(C)C3CC[C@@H]4O)[C@]21C` (stereo partly drawn) [(2R,3S,6E,14S,15S,17R)-6-[(4-benzylpiperazin-1-yl)methylidene]-8,14-dihydroxy-3-(methoxymethyl)-2,15-dimethyl-5,9-dioxo-4-oxatetracyclo[8.7.0.0^{2,7}.0^{11,15}]heptadeca-1(10),7-dien-17-yl acetate]: the IC50 is 87 nM.

The molecule `COC[C@H]1OC(=O)C(=CN2CCN(C3CCCCC3)CC2)C2C(=O)C(=O)C3=C([C@H](OC(C)=O)C[C@@]4(C)C3CC[C@@H]4O)[C@]21C` (stereo partly drawn) [(2R,3S,6E,14S,15S,17R)-6-[(4-cyclohexylpiperazin-1-yl)methylidene]-8,14-dihydroxy-3-(methoxymethyl)-2,15-dimethyl-5,9-dioxo-4-oxatetracyclo[8.7.0.0^{2,7}.0^{11,15}]heptadeca-1(10),7-dien-17-yl acetate] registered an IC50 of 43 nM.

`COC[C@H]1OC(=O)C(=CN(C)CC(O)CO)C2C(=O)C(=O)C3=C([C@H](OC(C)=O)C[C@@]4(C)C3CC[C@@H]4O)[C@]21C` (stereo partly drawn) [(2R,3S,6E,14S,15S,17R)-6-{[(2,3-dihydroxypropyl)(methyl)amino]methylidene}-8,14-dihydroxy-3-(methoxymethyl)-2,15-dimethyl-5,9-dioxo-4-oxatetracyclo[8.7.0.0^{2,7}.0^{11,15}]heptadeca-1(10),7-dien-17-yl acetate] showed an IC50 of 199 nM.

Turning to `COC[C@H]1OC(=O)C(=CN(CCC#N)Cc2ccccc2)C2C(=O)C(=O)C3=C([C@H](OC(C)=O)C[C@@]4(C)C3CC[C@@H]4O)[C@]21C` (stereo partly drawn) [(2R,3S,6E,14S,15S,17R)-6-{[benzyl(2-cyanoethyl)amino]methylidene}-8,14-dihydroxy-3-(methoxymethyl)-2,15-dimethyl-5,9-dioxo-4-oxatetracyclo[8.7.0.0^{2,7}.0^{11,15}]heptadeca-1(10),7-dien-17-yl acetate], the IC50 is 444 nM.

`COC[C@H]1OC(=O)C(=CN(CCO)CCO)C2C(=O)C(=O)C3=C([C@H](OC(C)=O)C[C@@]4(C)C3CC[C@@H]4O)[C@]21C` (stereo partly drawn) [(2R,3S,6E,14S,15S,17R)-6-{[bis(2-hydroxyethyl)amino]methylidene}-8,14-dihydroxy-3-(methoxymethyl)-2,15-dimethyl-5,9-dioxo-4-oxatetracyclo[8.7.0.0^{2,7}.0^{11,15}]heptadeca-1(10),7-dien-17-yl acetate]: half-maximal inhibition (IC50) required 918 nM.

The molecule `COC[C@H]1OC(=O)C(=CN2CCCCC2)C2C(=O)C(=O)C3=C([C@H](OC(C)=O)C[C@@]4(C)C3CC[C@@H]4O)[C@]21C` (stereo partly drawn) [(2R,3S,6E,14S,15S,17R)-8,14-dihydroxy-3-(methoxymethyl)-2,15-dimethyl-5,9-dioxo-6-(piperidin-1-ylmethylidene)-4-oxatetracyclo[8.7.0.0^{2,7}.0^{11,15}]heptadeca-1(10),7-dien-17-yl acetate] registered an IC50 of 104 nM.
